From US7425410B2, “Methods for diagnosing a bipolar disorder and unipolar disorder” (Free State Diagnostics, LLC, priority 2003, dated 2008)

Experiments:
lymphoblasts [1] = assay: Membrane potential of lymphoblasts by DiOC6(3) fluorescence intensity ratio; format: cell-based, human
Description: Three groups of immortalized lymphoblast samples were obtained from the Human Genetic Mutant Cell Repository (Coriell Institute for Medical Research, Camden N.J.). The samples are shown in Table 4 below and included six from affected (bipolar I disorder) patients (A1 through A6), six from their siblings (S1 through S6), and six from unrelated normal control subjects matched by age and sex (N1 through N6).
The cells were grown at 37° C. in RPMI 1640 culture medium (GIBCO, Life Technologies, Gaithersburg, Md., USA) with 15% fetal bovine serum and 1% penicillin.
The membrane potentials of the bipolar I cells shown in Table 4 above (as well as in all other experiments, except where indicated) were measured using the following protocol. The cells cultured in the media described above were centrifuged at 210 g for 5 minutes at room temperature, then suspended in 3 ml of K^+-containing stock buffer (5 mM KCl, 4 mM NaHCO3, 5 mM HEPES, 134 mM NaCl, 2.3 mM CaCl2, and 5 mM glucose). The cells were counted and the desired number of cells were again suspended in the K^+-containing buffer. The membrane potentials were measured using 3,3′-dihexyloxacarbocyanine iodide DiOC6(3), a cell-permeant, voltage sensitive, green-fluorescent dye (Molecular Probes Inc. Eugene, Oreg. USA). The cells were preincubated for 30 minutes before measurements. The preincubated cell suspension was centrifuged at 210 g for 5 minutes and the cells were resuspended in the K^+-containing buffer without the dye in the buffer.
A fluorescence spectrometer (F2500 Hitachi, Japan) was used for the measurement of the membrane potential by measuring the fluorescence intensity of DiOC6(3), which is directly proportional to the membrane potential. The intensity of fluorescence was measured at an excitation wavelength of 488 nm and an output wavelength of 540 nm. The time of recordings varied from 10 seconds to 1500 seconds depending upon the experiment.
Membrane potential was expressed according to fluorescence intensity using the following equation: I=CV, wherein I is the fluorescence intensity of a lipophilic fluorescent dye DiOC6(3) being only one example of such a dye); V is the voltage or membrane potential; and C is a constant that can vary depending on a number of factors such as, but not limited to, temperature, lamp intensity, number of cells, concentration of the fluorescent dye, incubation time, and lipid composition of cells used. By using the ratio of the fluorescence intensity (I1) of one sample of cells to the fluorescence intensity (I2) of another sample of cells, the constant (C) could be canceled out
Membrane potentials were also measured in K^+-free buffer to enable comparison with membrane potentials in K^+-containing buffer. As used herein, K^+-free buffer contains all of the components of the K^+-containing buffer, except potassium (4 mM NaHCO3, 5 mM HEPES, 134 mM NaCl, 2.3 mM CaCl2, and 5 mM glucose). Constant volumes of samples of each cell line were added to an equal volume of buffer containing an equal volume of dye. […] Each variable was constant for each cell line in both buffers, so that the ratio of intensities was a true ratio-metric measurement.
The relative fluorescence intensity ratio of cells in K^+-free buffer was compared to that of cells in K^+-containing buffer with or without 30 μM ethacrynate. […] The membrane potential of these cells was determined by measuring the fluorescence intensity as described above. […]

[2] = antibiotic ionophore; cited from earlier work
lymphoblasts [3] = assay: Rate of drop in membrane potential (repolarization rate) in lymphoblasts; format: cell-based, human
Description: As the Na^+K^+ ATPase density on the cell surface increases, the intracellular sodium concentration decreases and the membrane potential begins to drop as a result of repolarization of the cell membrane. The rate of drop in membrane potential (repolarization rate) in affected cells incubated for 30 minutes in both K^+-free buffer and in K^+-containing (regular) buffer in the presence or absence of 30 μM ethacrynate was compared to that of unaffected cells incubated for 30 minutes in both K^+-free buffer and in K^+-containing buffer in the presence or absence of 30 μM ethacrynate. The difference in the median values between the two groups was greater than would be expected by chance.
The rate of drop in membrane potential after incubation with the protein kinase C (PKC) activator, phorbol 12-myristate 13-acetate (PMA), was compared in affected cells to that of unaffected cells. The membrane potential of these cells was determined by measuring the fluorescence intensity as described above. The rate of drop in membrane potential (repolarization rate) in affected cells was compared to that in unaffected cells in K^+-free buffer in the presence or absence of 2 μM PMA. The difference in the median values between the two groups was greater than would be expected by chance.
The rate of drop in membrane potential (repolarization rate) in affected cells incubated for 30 minutes in both K^+-free buffer and in K^+-containing (regular) buffer in the presence or absence of 2 μM PMA was compared to that of unaffected cells incubated for 30 minutes in both K^+-free buffer and in K^+-containing buffer in the presence or absence of 2 μM PMA. The difference in the median values between the two groups was greater than would be expected by chance.

whole blood cells [4] = assay: Open clinical trial: fluorescence intensity ratio of whole blood cells; format: cell-based, human
Description: A pilot clinical trial was conducted using blood samples from 12 clinically affected bipolar patients and 11 unaffected controls. The medical histories of the patients were known to the investigator measuring the membrane potentials; therefore, the trials described in this example were open trials. The patients ranged from 19 years to 77 years in age, and included males and females from different ethnic groups. Similarly, the controls ranged from 25 to 67 including males and females from different ethnic groups. The patients were all hospitalized following a confirmed manic episode. During the drawing of samples, all patients were on mood stabilizers, either lithium or valproate.
Because the volume of blood required to collect enough lymphocytes was beyond that permitted by the current protocol, the membrane potential of whole blood cells was determined. The volume of whole blood required was approximately 1 ml. The blood samples were kept on ice until they were stored at 4° C. All of the samples were tested within 48 hours.
Whole blood samples drawn from patients and controls were suspended in K^+-containing buffer without ethacrynate and in K^+-free buffer with 30 μM ethacrynate or with 100 mM sorbitol. The fluorescent dye DiOC6(3) was added to both suspensions and incubated for 30 minutes. The cell suspensions loaded with the dye were centrifuged, drained and resuspended in the respective buffers. The fluorescence intensity was measured for 10 seconds and the ratio of the intensity in K^+-free buffer to the intensity in K^+-containing buffer was calculated.

whole blood cells [5] = assay: Blind clinical trial and individual patient diagnosis: fluorescence intensity ratio of whole blood cells; format: cell-based, human; details: 30 μM ethacrynate
Description: A clinical trial was conducted using blood samples from the following four groups: schizophrenic, bipolar, and unipolar patients, as well as controls. The medical histories of these patients were unknown to the investigator measuring the membrane potentials; therefore, the trials described in this example were blind trials. The sample size was determined to be 5 with a power of 0.9, an alpha of 0.05, a difference in mean of 0.08, and a standard deviation of 0.03. However, more than 10 samples for each category were tested for a total sample size of 59. If a patient matched a diagnosis, structured clinical interviews according to DSM-IV guidelines were performed.
Whole blood samples drawn from patients and controls were suspended both in K^+-containing buffer and in K^+-free buffer with 30 μM ethacrynate or with 100 μM sorbitol. The fluorescent dye DiOC6(3) was added to both suspensions and incubated for 30 minutes. The cell suspensions loaded with the dye were centrifuged, drained and resuspended in the respective buffers. The fluorescence intensity was measured for 10 seconds and the ratio of the intensity in K^+-free buffer to the intensity in K^+-containing buffer was calculated.
An individual patient's cell sample was tested as described herein and six to twelve ratios were calculated. These values were treated as a group and compared with a normal control group (negative control) and a bipolar group (positive control).

[6] = Bipolars, 30 μM ethacrynate, whole blood
[7] = Controls, 30 μM ethacrynate, whole blood
[8] = blind trial, Bipolars, whole blood
[9] = blind trial, Controls, whole blood
[10] = blind trial, Schizophr., whole blood
[11] = blind trial, Unipolars, whole blood

SMILES: CC[C@@]1([C@@H]2O[C@@H]([C@H]3O[C@@](O)(CO)[C@H](C)C[C@@H]3C)C[C@@H]2C)CC[C@H]([C@]2(C)CC[C@]3(C[C@H](O)[C@@H](C)[C@@H]([C@@H](C)[C@@H](OC)[C@H](C)C(=O)O)O3)O2)O1 [monensin]
- intensity ratio (membrane potential with monensin/without monensin) of affected cells compared to unaffected cells (lymphoblasts [1]; K+-free buffer, 10 μM monensin, 30 min, t-test P=0.009): significantly lower
- preference for Na+ over K+ [2]: 10 fold

SMILES: C=C(CC)C(=O)c1ccc(OCC(=O)O)c(Cl)c1Cl [ethacrynate]
- relative intensity ratio of affected cells compared to unaffected cells (lymphoblasts [1]; 30 μM ethacrynate, 30 min, K+-free vs K+-containing buffer, t-test P=0.009): significantly higher
- intensity ratio (membrane potential with ethacrynate/without ethacrynate) of affected cells compared to unaffected cells (lymphoblasts [1]; K+-free buffer, 30 μM ethacrynate, t-test P=0.032): significantly higher
- relative intensity ratio, mean (intensity ratio with/without ethacrynate in K+-free buffer divided by that in K+-containing buffer) (lymphoblasts [1]; affected (bipolar I) cells, 30 μM ethacrynate, 30 min): approximately 1.04
- relative intensity ratio, mean (intensity ratio with/without ethacrynate in K+-free buffer divided by that in K+-containing buffer) (lymphoblasts [1]; unaffected (sibling and normal) cells, 30 μM ethacrynate, 30 min): approximately 0.79
- relative rate of repolarization in affected cells compared to unaffected cells (lymphoblasts [3]; 30 μM ethacrynate, 30 min, K+-free and K+-containing buffer, P=0.041): significantly higher
- mean fluorescence intensity ratio of bipolar samples compared to control samples (whole blood cells [4]; 30 μM ethacrynate, t-test): significantly lower
- ratio of fluorescence intensity in K+-free buffer with ethacrynate to K+-containing buffer without ethacrynate, Mean (whole blood cells [4]; [6]): 0.780
- ratio of fluorescence intensity in K+-free buffer with ethacrynate to K+-containing buffer without ethacrynate, Median (whole blood cells [4]; [6]): 0.778
- ratio of fluorescence intensity in K+-free buffer with ethacrynate to K+-containing buffer without ethacrynate, Mean (whole blood cells [4]; [7]): 0.893
- ratio of fluorescence intensity in K+-free buffer with ethacrynate to K+-containing buffer without ethacrynate, Median (whole blood cells [4]; [7]): 0.893
- ratio of fluorescence intensity in K+-free buffer with ethacrynate to K+-containing buffer without ethacrynate, Mean (whole blood cells [5]; Patient A): 0.766
- ratio of fluorescence intensity in K+-free buffer with ethacrynate to K+-containing buffer without ethacrynate, Median (whole blood cells [5]; Patient A): 0.763
- fluorescence intensity ratio of bipolar samples compared to the other three groups (whole blood cells [5]; blind trial, ANOVA): significantly lower
- fluorescence intensity ratio of unipolar samples compared to the other three groups (whole blood cells [5]; blind trial, ANOVA): significantly higher
- ratio of fluorescence intensity in K+-free buffer with ethacrynate to K+-containing buffer without ethacrynate, Mean (whole blood cells [5]; [8]): 0.768
- ratio of fluorescence intensity in K+-free buffer with ethacrynate to K+-containing buffer without ethacrynate, Median (whole blood cells [5]; [8]): 0.773
- ratio of fluorescence intensity in K+-free buffer with ethacrynate to K+-containing buffer without ethacrynate, Mean (whole blood cells [5]; [9]): 0.850
- ratio of fluorescence intensity in K+-free buffer with ethacrynate to K+-containing buffer without ethacrynate, Median (whole blood cells [5]; [9]): 0.850
- ratio of fluorescence intensity in K+-free buffer with ethacrynate to K+-containing buffer without ethacrynate, Mean (whole blood cells [5]; [10]): 0.870
- ratio of fluorescence intensity in K+-free buffer with ethacrynate to K+-containing buffer without ethacrynate, Median (whole blood cells [5]; [10]): 0.863
- ratio of fluorescence intensity in K+-free buffer with ethacrynate to K+-containing buffer without ethacrynate, Mean (whole blood cells [5]; [11]): 0.898
- ratio of fluorescence intensity in K+-free buffer with ethacrynate to K+-containing buffer without ethacrynate, Median (whole blood cells [5]; [11]): 0.901

SMILES: CCCCCCCCCCCCCC(=O)O[C@@H]1[C@@H](C)[C@@]2(O)[C@@H](C=C(CO)C[C@]3(O)C(=O)C(C)=C[C@@H]23)[C@@H]2C(C)(C)[C@]12OC(C)=O [PMA, phorbol 12-myristate 13-acetate]
- relative ratio of repolarization rates in affected cells compared to unaffected cells (lymphoblasts [3]; 2 μM PMA, 30 min, K+-free and K+-containing buffer, P=0.046): significantly lower
- repolarization rate (with PMA/without PMA) in affected cells compared to unaffected cells (lymphoblasts [3]; K+-free buffer, 2 μM PMA, t-test P=0.029): significantly different

SMILES: OC[C@@H](O)[C@@H](O)[C@H](O)[C@@H](O)CO [sorbitol]
- fluorescence intensity ratios of bipolar cells with sorbitol compared to ethacrynate (whole blood cells [4]; bipolar patients, 100 mM sorbitol in K+-free buffer, whole blood): comparable
